According to patent US20220135591A1, “HETEROCYCLIC COMPOUNDS AS INHIBITORS OF MONOACYLGLYCEROL LIPASE (MAGL)” (Hoffmann-La Roche Inc., priority 2019, published 2022):

Target: T1, MAGL (Homo sapiens, UniProt Q99685)
T1 sequence (Q99685 1-303): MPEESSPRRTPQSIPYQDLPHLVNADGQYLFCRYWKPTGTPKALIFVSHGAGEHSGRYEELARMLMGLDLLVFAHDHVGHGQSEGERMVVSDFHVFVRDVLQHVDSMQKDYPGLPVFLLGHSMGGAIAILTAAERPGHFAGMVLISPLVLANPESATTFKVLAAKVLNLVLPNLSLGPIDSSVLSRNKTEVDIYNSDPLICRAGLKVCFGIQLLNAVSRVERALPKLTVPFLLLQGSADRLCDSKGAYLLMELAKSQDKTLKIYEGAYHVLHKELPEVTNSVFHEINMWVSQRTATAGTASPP
Test: 2-AG assay: MAGL inhibitory activity by hydrolysis of 2-arachidonoylglycerol to arachidonic acid, mass spectrometry
Assay type: biochemical
Conditions: 2-AG assay (values marked [b])
Protocol: Alternatively, compounds were profiled for MAGL inhibitory activity by determining the enzymatic activity by following the hydrolysis of the natural substrate 2-arachidonoylglycerol (2-AG) resulting in arachidonic acid, which can be followed by mass spectrometry. This assay is hereinafter abbreviated “2-AG assay”.
The 2-AG assay was carried out in 384 well assay plates (PP, Greiner Cat #784201) in a total volume of 20 μL. Compound dilutions were made in 100% DMSO (VWR Chemicals 23500.297) in a polypropylene plate in 3-fold dilution steps to give a final concentration range in the assay from 12.5 μM to […]. 0.25 μL compound dilutions (100% DMSO) were added to 9 μL MAGL in assay buffer (50 mM TRIS (GIBCO, 15567-027), 1 mM EDTA (Fluka, 03690-100 mL), 0.01% (v/v) Tween. After shaking, the plate was incubated for 15 min at RT. To start the reaction, 10 μL 2-arachidonoylglycerol in assay buffer was added. The final concentrations in the assay was […] and 8 μM 2-arachidonoylglyerol. After shaking and 30 min incubation at RT, the reaction was quenched by the addition of 40 μL of ACN containing 4 μM of d8-arachidonic acid. The amount of arachidonic acid was traced by an online SPE system (Agilent Rapidfire) coupled to a triple quadrupole mass spectrometer (Agilent 6460). A C18 SPE cartridge (G9205A) was used in an ACN/water liquid setup. The mass spectrometer was operated in negative electrospray mode following the mass transitions 303.1→259.1 for arachidonic acid and 311.1→267.0 for d8-arachidonic acid. The activity of the compounds was calculated based on the ratio of intensities [arachidonic acid/d8-arachidonic acid].

SMILES	IC50 [nM]
CC(C)(C)Cn1cc(-c2ccc(C(=O)N3CCN(c4nc5nc(Cl)ccc5o4)C[C@H]3CO)cc2)nn1 (stereo in doubt) [Example 289, [(2S)-4-(5-chlorooxazolo[4,5-b]pyridin-2-yl)-2-(hydroxymethyl)piperazin-1-yl]-[4-[1-(2,2-dimethylpropyl)triazol-4-yl]phenyl]methanone]	63
CC(C)(C)Cn1cc(-c2ccc(C(=O)N3CCN(c4nc5nc(Cl)ccc5o4)C[C@@H]3CO)cc2)nn1 (stereo in doubt) [Example 290, [(2R)-4-(5-chlorooxazolo[4,5-b]pyridin-2-yl)-2-(hydroxymethyl)piperazin-1-yl]-[4-[1-(2,2-dimethylpropyl)triazol-4-yl]phenyl]methanone]	2070
Cc1ccc2oc(N3CCN(C(=O)c4ccc(-c5nnc(CC(C)(C)C)n5C)cc4)CC3)nc2n1 [Example 74, [4-[5-(2,2-dimethylpropyl)-4-methyl-1,2,4-triazol-3-yl]phenyl]-[4-(5-methyloxazolo[4,5-b]pyridin-2-yl)piperazin-1-yl]methanone]	327
Cc1ccc2oc(N3CCN(C(=O)c4ccc(-c5cn(CC(C)(C)C)nn5)cc4)CC3)nc2n1 [Example 75, [4-[1-(2,2-dimethylpropyl)triazol-4-yl]phenyl]-[4-(5-methyloxazolo[4,5-b]pyridin-2-yl)piperazin-1-yl]methanone]	19
Cn1c(-c2ccc(C(=O)N3CCN(c4nc5nc(Cl)ccc5o4)CC3)cc2)nnc1C(C)(C)C [Example 76, [4-(5-tert-butyl-4-methyl-1,2,4-triazol-3-yl)phenyl]-[4-(5-chlorooxazolo[4,5-b]pyridin-2-yl)piperazin-1-yl]methanone]	1310
Cc1ccc2oc(N3CCN(C(=O)c4ccc(-c5nnc(C(C)(C)C)n5C)cc4)CC3)nc2n1 [Example 77, [4-(5-tert-butyl-4-methyl-1,2,4-triazol-3-yl)phenyl]-[4-(5-methyloxazolo[4,5-b]pyridin-2-yl)piperazin-1-yl]methanone]	2320
CC(C)(C)c1nc(-c2ccc(C(=O)N3CCN(c4nc5nc(Cl)ccc5o4)CC3)cc2Cl)no1 [Example 78, [4-(5-tert-butyl-1,2,4-oxadiazol-3-yl)-3-chloro-phenyl]-[4-(5-chlorooxazolo[4,5-b]pyridin-2-yl)piperazin-1-yl]methanone]	4
Cc1ccc2oc(N3CCN(C(=O)c4ccc(-c5noc(C(C)(C)C)n5)c(Cl)c4)CC3)nc2n1 [Example 79, [4-(5-tert-butyl-1,2,4-oxadiazol-3-yl)-3-chloro-phenyl]-[4-(5-methyloxazolo[4,5-b]pyridin-2-yl)piperazin-1-yl]methanone]	24
CC(C)(C)c1nc(-c2c(F)cc(C(=O)N3CCN(c4nc5nc(Cl)ccc5o4)CC3)cc2F)no1 [Example 80, [4-(5-tert-butyl-1,2,4-oxadiazol-3-yl)-3,5-difluoro-phenyl]-[4-(5-chlorooxazolo[4,5-b]pyridin-2-yl)piperazin-1-yl]methanone]	21
CC(C)(C)c1nc(-c2ccc(C(=O)N3CCN(c4nc5nc(Cl)ccc5o4)CC3)cc2C(F)(F)F)no1 [Example 81, [4-(5-tert-butyl-1,2,4-oxadiazol-3-yl)-3-(trifluoromethyl)phenyl]-[4-(5-chlorooxazolo[4,5-b]pyridin-2-yl)piperazin-1-yl]methanone]	9
Cc1ccc2oc(N3CCN(C(=O)c4ccc(-c5nnc(C(C)(C)C)o5)c(C)c4)CC3)nc2n1 [Example 82, [4-(5-tert-butyl-1,3,4-oxadiazol-2-yl)-3-methyl-phenyl]-[4-(5-methyloxazolo[4,5-b]pyridin-2-yl)piperazin-1-yl]methanone]	37
Cc1cc(C(=O)N2CCN(c3nc4nc(Cl)ccc4o3)CC2)ccc1-c1nnc(C(C)(C)C)o1 [Example 83, [4-(5-tert-butyl-1,3,4-oxadiazol-2-yl)-3-methyl-phenyl]-[4-(5-chlorooxazolo[4,5-b]pyridin-2-yl)piperazin-1-yl]methanone]	11
CC(C)(C)Cn1ncc(-c2ccc(C(=O)N3CCN(c4nc5nc(Cl)ccc5o4)CC3)cc2F)n1 [Example 84, (4-(5-chlorooxazolo[4,5-b]pyridin-2-yl)piperazin-1-yl)(3-fluoro-4-(2-neopentyl-2H-1,2,3-triazol-4-yl)phenyl)methanone]	2
Cc1ccc2oc(N3CCN(C(=O)c4ccc(-c5cnn(CC(C)(C)C)n5)c(F)c4)CC3)nc2n1 [Example 85, (3-fluoro-4-(2-neopentyl-2H-1,2,3-triazol-4-yl)phenyl)(4-(5-methyloxazolo[4,5-b]pyridin-2-yl)piperazin-1-yl)methanone]	5
CC(C)(C)Cn1cc(-c2ccc(C(=O)N3CCN(c4nc5nc(Cl)ccc5o4)CC3)cc2F)nn1 [Example 86, (4-(5-chlorooxazolo[4,5-b]pyridin-2-yl)piperazin-1-yl)(3-fluoro-4-(1-neopentyl-1H-1,2,3-triazol-4-yl)phenyl)methanone]	2
Cc1ccc2oc(N3CCN(C(=O)c4ccc(-c5cn(C(C)(C)C)nn5)cc4)CC3)nc2n1 [Example 87, (4-(1-(tert-butyl)-1H-1,2,3-triazol-4-yl)phenyl)(4-(5-methyloxazolo[4,5-b]pyridin-2-yl)piperazin-1-yl)methanone]	151
CC(C)(C)n1cc(-c2ccc(C(=O)N3CCN(c4nc5nc(Cl)ccc5o4)CC3)cc2)nn1 [Example 88, (4-(1-(tert-butyl)-1H-1,2,3-triazol-4-yl)phenyl)(4-(5-chlorooxazolo[4,5-b]pyridin-2-yl)piperazin-1-yl)methanone]	71
Cc1ccc2oc(N3CCN(C(=O)c4ccc(-c5ncn(C(C)(C)C)n5)c(Cl)c4)CC3)nc2n1 [Example 89, (4-(1-(tert-butyl)-1H-1,2,4-triazol-3-yl)-3-chlorophenyl)(4-(5-methyloxazolo[4,5-b]pyridin-2-yl)piperazin-1-yl)methanone]	25
CC(C)(C)n1cnc(-c2ccc(C(=O)N3CCN(c4nc5nc(Cl)ccc5o4)CC3)cc2Cl)n1 [Example 90, (4-(1-(tert-butyl)-1H-1,2,4-triazol-3-yl)-3-chlorophenyl)(4-(5-chlorooxazolo[4,5-b]pyridin-2-yl)piperazin-1-yl)methanone]	16
CC(C)(C)Cn1ncc(-c2c(F)cc(C(=O)N3CCN(c4nc5nc(Cl)ccc5o4)CC3)cc2F)n1 [Example 91, (4-(5-chlorooxazolo[4,5-b]pyridin-2-yl)piperazin-1-yl)(3,5-difluoro-4-(2-neopentyl-2H-1,2,3-triazol-4-yl)phenyl)methanone]	3
Cc1ccc2oc(N3CCN(C(=O)c4cc(F)c(-c5cnn(CC(C)(C)C)n5)c(F)c4)CC3)nc2n1 [Example 92, (3,5-difluoro-4-(2-neopentyl-2H-1,2,3-triazol-4-yl)phenyl)(4-(5-methyloxazolo[4,5-b]pyridin-2-yl)piperazin-1-yl)methanone]	10
CC(C)(C)Cn1cc(-c2c(F)cc(C(=O)N3CCN(c4nc5nc(Cl)ccc5o4)CC3)cc2F)nn1 [Example 93, (4-(5-chlorooxazolo[4,5-b]pyridin-2-yl)piperazin-1-yl)(3,5-difluoro-4-(1-neopentyl-1H-1,2,3-triazol-4-yl)phenyl)methanone]	7
Cc1ccc2oc(N3CCN(C(=O)c4ccc(-c5cn(C67CC(C6)C7)nn5)cc4)CC3)nc2n1 [Example 94, (4-(1-(bicyclo[1.1.1]pentan-1-yl)-1H-1,2,3-triazol-4-yl)phenyl)(4-(5-methyloxazolo[4,5-b]pyridin-2-yl)piperazin-1-yl)methanone]	88
O=C(c1ccc(-c2cn(C34CC(C3)C4)nn2)cc1)N1CCN(c2nc3nc(Cl)ccc3o2)CC1 [Example 95, (4-(1-(bicyclo[1.1.1]pentan-1-yl)-1H-1,2,3-triazol-4-yl)phenyl)(4-(5-chlorooxazolo[4,5-b]pyridin-2-yl)piperazin-1-yl)methanone]	42
Cc1ccc2oc(N3CCN(C(=O)c4ccc(-c5ncn(C(C)(C)C)n5)c(C)c4)CC3)nc2n1 [Example 96, (4-(1-(tert-butyl)-1H-1,2,4-triazol-3-yl)-3-methylphenyl)(4-(5-methyloxazolo[4,5-b]pyridin-2-yl)piperazin-1-yl)methanone]	23
Cc1cc(C(=O)N2CCN(c3nc4nc(Cl)ccc4o3)CC2)ccc1-c1ncn(C(C)(C)C)n1 [Example 97, (4-(1-(tert-butyl)-1H-1,2,4-triazol-3-yl)-3-methylphenyl)(4-(5-chlorooxazolo[4,5-b]pyridin-2-yl)piperazin-1-yl)methanone]	12
